Assay results reported in US20140322348A1 (priority 2011, published 2014).

Key:
grapevine downy mildew = assay: Vineyard trial against grapevine downy mildew, foliar sprays; conditions: seven days after third application, rates TG 0.3%, potassium phosphite 0.4%, Liquid Copper 0.25%; for % infected leaf area: grape "Superior"
Description: The Timorex Gold or synthetic fungicidal composition were diluted prior to use. At the outset, pre-harvest plants were moderately infected with downy mildew. The crops studied were drip irrigated and fertilized according to known recommendations. Treatments were applied in a randomized complete block, with 4 replications per treatment. Plot size in each instance was 8 m length. Fungicidal treatment was applied using backpack sprayer equipped with a mist blower (STHIL 340 with endpiece 3) to spray a volume of 100 liter/dunam (1000 liter/ha) Foliar sprays were applied on days 1, 10 and 17. The plants were inspected on day 1 (prior to spraying) and days 11, 18 and 24. At the beginning of the experiment, for each group, 5 plant extremities having single leafs were marked. The percent of coverage of downy mildew on a five square cm area was estimated before marking in order to estimate the efficacy in curing infection and after marking to estimate the efficacy in preventing infection. To analyze the results, an arc-sin transformation was performed on the raw data, and analysis of variance (ANOVA) using the SAS GLM procedure was applied to the transformed data. The Tukey-Kramer Test was applied to determine whether differences between treatments were significant.

cucumber downy mildew = assay: Greenhouse trial against cucumber downy mildew, foliar sprays; conditions: rates TG 0.5%, potassium phosphite 0.4%
Description: Combinations of TTO (supplied as Timorex Gold®, 23.8% TTO) and a synthetic fungicidal composition (supplied Canon® 50 from Luxembourg Industries Ltd., Israel, containing 780 g potassium phosphite (equivalent to 500 g phosphorous acid) per liter) were tested against cucumber downy mildew. Greenhouse-grown plants were drip irrigated and fertilized according to known recommendations for this crop. Treatments were applied in a randomized complete block, with 5 replications per treatment. Plot size in each instance was of 7 m length, containing 14 plants. The TTO or potassium phosphite composition were diluted prior to use. Fungicidal treatment was applied using backpack sprayer equipped with a mist blower (STHIL 340) to spray a at a rate of 350 cc/dunam. Three foliar sprays were applied at 11-13 day intervals. Disease severity was evaluated by determining the leaf area covered with downy mildew (disease severity) on each of 20 leaves randomly selected per each replicate. […] To analyze the results, an arc-sin transformation was performed on the raw data, and analysis of variance (ANOVA) using the SAS GLM procedure was applied to the transformed data. The Tukey-Kramer Test was applied to determine whether differences between treatments were significant.

Substance: potassium phosphite
- % infected leaf area (grapevine downy mildew; Curative): 28.25%
- Efficacy (%) (grapevine downy mildew; Curative): 25.2%
- % infected leaf area (grapevine downy mildew; Protectant): 14%
- Efficacy (%) (grapevine downy mildew; Protectant): 62.9%
- Severity % infected leaf area (cucumber downy mildew; 11 days after third application): 1.4%
- Efficacy (%) (cucumber downy mildew; Incidence, seven days after third application): 74.4%
- Incidence % leaves infected (cucumber downy mildew; Seven days after third application): 23.7%
- Efficacy (%) (cucumber downy mildew; Severity, 11 days after third application): 92.1%
